# Test results as given in patent US20050112573A1, “Method of detecting toxic substance” (priority 2001, published 2005).
# Tested on: yeast genes (level of expressed mRNA)
# Test: DNA chip analysis of expressed mRNA of yeast genes after 2 h culture with a toxic chemical substance
# Assay type: cell-based, Saccharomyces cerevisiae S288C
# Conditions: for The level of expressed mRNA in the presence of chemical substance/ (ratio to absence of chemical substance): stress protein genes, DNA chip; for The level of expressed mRNA in the presence of chemical substance/ in its absence, gene YPR184W: yeast gene YPR184W
# Procedure: Yeast (Saccharomyces cerevtisiae S288C (α SUC2mal mel gap2 CUP1)) were cultured at 25° C. on YPD medium (yeast extract 1%, polypepton 2%, glucose 2%). One of toxic chemical substances was added to the cell at logarithmic growth phase, and the cell was further cultured for two hours. Cell was cultured without any chemical substance in the same condition, and was used as control. Concentrations of the chemical substances were defined to inhibit the growth of the yeast but not lead to death.
# After the completion of cultivation, the culture was centrifuged to collect the cells. To the cells, sodium acetate buffer (50 mM sodium acetate, 10 mM EDTA, 1% SDS) was added, and the mixture was shaken at 65° C. for five minutes, followed by returning to room temperature, and obtaining the supernatant, which procedure was repeated two times. To the supernatant, ½ amount of a solution of phenol/chloroform was added, and the mixture was centrifuged to give a supernatant, which was added with an equal amount of chloroform, and the mixture was centrifuged to give a supernatant. To the supernatant, an equal amount of isopropanol containing 0.3 M sodium acetate was added, and the mixture was allowed to stand at room temperature for 30 minutes, after which the mixture was centrifuged to give a sediment of the whole RNAs. Seventy % ethanol was added to the sediment, and the mixture was again centrifuged to give a sediment, which was then dried and dissolved in water. mRNA was isolated from the whole RNAs as followings. In view of the fact that a poly A chain is attached to the 3′ terminus of mRNA, a polynucleotide having a poly T structure which was immobilized on the surface of latex beads was used to trap the mRNA, and then the mRNA was washed and eluted with spine column (Oligotex-dT30<Super>mRNA Purification Kit, Takara). Reverse transcription of the mRNA was conducted with a reverse transcriptase (Super Script II Reverse Transcriptase; catalogue No. 18064-014, GibcoBRL) using fluorescence-labeled nucleotides to give cDNAs that were introduced with Cy3-dUTP or Cy5-dUTP during the reverse transcription.
# The labeled cDNAs were dissolved in TE buffer (10 mM Tris-HCl/1 mM EDTA, pH8.0), and the solution was dropped on the DNA chip containing the whole genes of yeast (DNA Chip Research Inc. Japan) so that the cDNAs were hybridized on the DNA chip at 65° C. for over 12 hours. The fluoresces intensity of the DNA chip was read with a scanner, and the ratio relative to the fluorescence intensity resulting from the absence of chemical substance was estimated as the following, which is shown in Tables 1 to 9: [formula]
# In the Tables, “Intensity” indicated in the rightmost column is a value of the level of expressed mRNA of each gene in control cells as divided by the average level of the expressions of the whole genes.
compound,measurement,setting,value
"C[S+](C)[O-] [(15), dimethylsulfoxide]",The level of expressed mRNA in the presence of chemical substance/The level of expressed mRNA in the absence of chemical substance,yeast gene YMR314W,1.2
same,The level of expressed mRNA in the presence of chemical substance/The level of expressed mRNA in the absence of chemical substance,yeast gene YNL006W,0.7
same,The level of expressed mRNA in the presence of chemical substance/The level of expressed mRNA in the absence of chemical substance,yeast gene YNL007C,0.8
same,"The level of expressed mRNA in the presence of chemical substance/ (in its absence), gene YNL025C","yeast gene YNL025C, ratio of DNA chip fluorescence intensity to that without chemical substance",1.4
same,The level of expressed mRNA in the presence of chemical substance/ (ratio to absence of chemical substance),yeast gene YNL064C,0.7
same,"The level of expressed mRNA in the presence of chemical substance/ (ratio to absence), gene YNL073W","yeast gene YNL073W, mitochondria-located protein genes, 2 h culture with chemical",0.7
same,The level of expressed mRNA in the presence of chemical substance/The level of expressed mRNA in the absence of chemical substance,yeast gene YNL093W,0.6
same,"The level of expressed mRNA in the presence of chemical substance/ (in its absence), gene YNL192W","yeast gene YNL192W, ratio of DNA chip fluorescence intensity to that without chemical substance",2.1
same,The level of expressed mRNA in the presence of chemical substance/The level of expressed mRNA in the absence of chemical substance,yeast gene YNL333W,1.0
same,The level of expressed mRNA in the presence of chemical substance/The level of expressed mRNA in the absence of chemical substance,yeast gene YNR010W,0.8
same,The level of expressed mRNA in the presence of chemical substance/The level of expressed mRNA in the absence of chemical substance,yeast gene YNR069C,1.0
same,"The level of expressed mRNA in the presence of chemical substance/ (in its absence), gene YNR072W","yeast gene YNR072W, ratio of DNA chip fluorescence intensity to that without chemical substance",1.8
same,The level of expressed mRNA in the presence of chemical substance/ (ratio to absence of chemical substance),yeast gene YNR076W,1.1
same,The level of expressed mRNA in the presence of chemical substance/The level of expressed mRNA in the absence of chemical substance,yeast gene YOL013C,2.7
same,"The level of expressed mRNA in the presence of chemical substance/ (ratio to absence), gene YOL096C","yeast gene YOL096C, mitochondria-located protein genes, 2 h culture with chemical",1.0
same,"The level of expressed mRNA in the presence of chemical substance/ (in its absence), gene YOL096C","yeast gene YOL096C, ratio of DNA chip fluorescence intensity to that without chemical substance",1.0
same,"The level of expressed mRNA in the presence of chemical substance/ (in its absence), gene YOL108C","yeast gene YOL108C, ratio of DNA chip fluorescence intensity to that without chemical substance",1.5
same,"The level of expressed mRNA in the presence of chemical substance/ (in its absence), gene YOL116W","yeast gene YOL116W, ratio of DNA chip fluorescence intensity to that without chemical substance",0.7
same,The level of expressed mRNA in the presence of chemical substance/ (ratio to absence of chemical substance),yeast gene YOL161C,1.1
same,The level of expressed mRNA in the presence of chemical substance/The level of expressed mRNA in the absence of chemical substance,yeast gene YOL164W,1.0
same,The level of expressed mRNA in the presence of chemical substance/ (ratio to absence of chemical substance),yeast gene YOR008C,0.9
same,The level of expressed mRNA in the presence of chemical substance/ (ratio to absence of chemical substance),yeast gene YOR009W,0.6
same,The level of expressed mRNA in the presence of chemical substance/ (ratio to absence of chemical substance),yeast gene YOR010C,0.6
same,The level of expressed mRNA in the presence of chemical substance/The level of expressed mRNA in the absence of chemical substance,yeast gene YOR036W,1.2
same,"The level of expressed mRNA in the presence of chemical substance/ (in its absence), gene YOR103C","yeast gene YOR103C, ratio of DNA chip fluorescence intensity to that without chemical substance",1.4
same,The level of expressed mRNA in the presence of chemical substance/The level of expressed mRNA in the absence of chemical substance,yeast gene YOR117W,1.4
same,The level of expressed mRNA in the presence of chemical substance/The level of expressed mRNA in the absence of chemical substance,yeast gene YOR124C,1.3
same,The level of expressed mRNA in the presence of chemical substance/The level of expressed mRNA in the absence of chemical substance,yeast gene YOR132W,1.5
same,The level of expressed mRNA in the presence of chemical substance/The level of expressed mRNA in the absence of chemical substance,yeast gene YOR157C,1.9
same,"The level of expressed mRNA in the presence of chemical substance/ (in its absence), gene YOR180C","yeast gene YOR180C, ratio of DNA chip fluorescence intensity to that without chemical substance",1.1
same,The level of expressed mRNA in the presence of chemical substance/The level of expressed mRNA in the absence of chemical substance,yeast gene YOR181W,3.4
same,The level of expressed mRNA in the presence of chemical substance/The level of expressed mRNA in the absence of chemical substance,yeast gene YOR185C,1.0
same,"The level of expressed mRNA in the presence of chemical substance/ (in its absence), gene YOR251C","yeast gene YOR251C, ratio of DNA chip fluorescence intensity to that without chemical substance",0.6
same,The level of expressed mRNA in the presence of chemical substance/The level of expressed mRNA in the absence of chemical substance,yeast gene YOR259C,1.3
same,The level of expressed mRNA in the presence of chemical substance/The level of expressed mRNA in the absence of chemical substance,yeast gene YOR261C,1.3
same,The level of expressed mRNA in the presence of chemical substance/The level of expressed mRNA in the absence of chemical substance,yeast gene YOR288C,1.8
same,"The level of expressed mRNA in the presence of chemical substance/ (ratio to absence), gene YOR316C","yeast gene YOR316C, mitochondria-located protein genes, 2 h culture with chemical",1.5
same,"The level of expressed mRNA in the presence of chemical substance/ (in its absence), gene YOR348C","yeast gene YOR348C, ratio of DNA chip fluorescence intensity to that without chemical substance",1.6
same,The level of expressed mRNA in the presence of chemical substance/The level of expressed mRNA in the absence of chemical substance,yeast gene YOR355W,3.2
same,"The level of expressed mRNA in the presence of chemical substance/ (in its absence), gene YOR363C","yeast gene YOR363C, ratio of DNA chip fluorescence intensity to that without chemical substance",1.1
same,The level of expressed mRNA in the presence of chemical substance/The level of expressed mRNA in the absence of chemical substance,yeast gene YOR383C,1.1
same,"The level of expressed mRNA in the presence of chemical substance/ (ratio to absence), gene YPL040C","yeast gene YPL040C, mitochondria-located protein genes, 2 h culture with chemical",1.1
same,The level of expressed mRNA in the presence of chemical substance/ (ratio to absence of chemical substance),yeast gene YPL059W,1.0
same,The level of expressed mRNA in the presence of chemical substance/The level of expressed mRNA in the absence of chemical substance,yeast gene YPL089C,2.6
same,The level of expressed mRNA in the presence of chemical substance/The level of expressed mRNA in the absence of chemical substance,yeast gene YPL109C,1.3
same,"The level of expressed mRNA in the presence of chemical substance/ (ratio to absence), gene YPL134C","yeast gene YPL134C, mitochondria-located protein genes, 2 h culture with chemical",1.1
same,The level of expressed mRNA in the presence of chemical substance/ (ratio to absence of chemical substance),yeast gene YPL140C,0.7
same,"The level of expressed mRNA in the presence of chemical substance/ (in its absence), gene YPL148C","yeast gene YPL148C, ratio of DNA chip fluorescence intensity to that without chemical substance",0.6
same,The level of expressed mRNA in the presence of chemical substance/The level of expressed mRNA in the absence of chemical substance,yeast gene YPL149W,0.8
same,The level of expressed mRNA in the presence of chemical substance/The level of expressed mRNA in the absence of chemical substance,yeast gene YPL154C,4.0
same,The level of expressed mRNA in the presence of chemical substance/ (ratio to absence of chemical substance),yeast gene YPL194W,1.4
same,The level of expressed mRNA in the presence of chemical substance/ (ratio to absence of chemical substance),yeast gene YPR005C,2.7
same,The level of expressed mRNA in the presence of chemical substance/The level of expressed mRNA in the absence of chemical substance,yeast gene YPR103W,1.0
same,The level of expressed mRNA in the presence of chemical substance/The level of expressed mRNA in the absence of chemical substance,yeast gene YPR108W,1.3
same,"The level of expressed mRNA in the presence of chemical substance/ (in its absence), gene YPR165W","yeast gene YPR165W, ratio of DNA chip fluorescence intensity to that without chemical substance",0.9
same,"The level of expressed mRNA in the presence of chemical substance/ in its absence, gene YPR184W","energy system protein genes, 2 h culture with the chemical, ratio to control without chemical",1.5
same,"The level of expressed mRNA in the presence of chemical substance/ in its absence, gene YPR184W",ratio of DNA chip fluorescence intensity to that without chemical substance,1.5
